According to patent US9833497B2, “Human originated EGF domain proteins and use of the same” (CHENGDU SOURCEBIO LIMITED-LIABILITY COMPANY, priority 2013, dated 2017):

Tests used:
Type in all cases: cell-based
Klebsiella pneumonia = assay: MIC against Gram-negative bacteria: Klebsiella pneumonia; settings: 5×10^5 CFU/mL; for MIC K. pneumonia: two-fold serial dilution; for MIC against K. pneumonia: Klebsiella pneumonia, 96-well plate, 37° C., 10 h
In short: (§1)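 MIC, the lowest recombinant protein concentration giving no bacterial growth, found by two-fold serial dilution of human EGF-domain proteins in triplicate. Inoculum 5×10^5 CFU/mL in LB from cultures at McFarland 0.5; plates incubated at 37° C, 175 rpm shaking.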

Pseudomonas aeruginosa = assay: MIC against Gram-negative bacteria: Pseudomonas aeruginosa; settings: 5×10^5 CFU/mL; for MIC P. aeruginosa: two-fold serial dilution; for MIC against P. aeruginosa: Pseudomonas aeruginosa, 96-well plate, 37° C., 10 h
In short: as §1

Proteus vulgaris = assay: MIC against Gram-negative bacteria: Proteus vulgaris; settings: 5×10^5 CFU/mL; for MIC P. vulgaris: two-fold serial dilution; for MIC against P. vulgaris: Proteus vulgaris, 96-well plate, 37° C., 10 h
In short: as §1

Proteus mirabilis = assay: MIC against Gram-negative bacteria: Proteus mirabilis; settings: 5×10^5 CFU/mL; for MIC P. mirabilis: two-fold serial dilution; for MIC against P. mirabilis: Proteus mirabilis, 96-well plate, 37° C., 10 h
In short: as §1

Enterobacter cloacae = assay: MIC against Gram-negative bacteria: Enterobacter cloacae; settings: 5×10^5 CFU/mL; for MIC E. cloacae: two-fold serial dilution; for MIC against E. cloacae: Enterobacter cloacae, 96-well plate, 37° C., 10 h
In short: as §1

Moraxella catarrhalis = assay: MIC against Gram-negative bacteria: Moraxella catarrhalis; settings: 5×10^5 CFU/mL; for MIC M. catarrhalis: two-fold serial dilution; for MIC against M. catarrhalis: Moraxella catarrhalis, 96-well plate, 37° C., 10 h
In short: as §1

Aeromonas hydrophila = assay: MIC against Gram-negative bacteria: Aeromonas hydrophila; settings: 5×10^5 CFU/mL; for MIC A. hydrophila: two-fold serial dilution; for MIC against A. hydrophila: Aeromonas hydrophila, 96-well plate, 37° C., 10 h
In short: as §1

E. coli BL21 = assay: MIC against Gram-negative bacteria: E. coli BL21; settings: 5×10^5 CFU/mL; for MIC E. coli BL21: two-fold serial dilution; for MIC against E. coli BL21: 96-well plate, 37° C., 10 h
In short: as §1

Serratia marcescens = assay: MIC against Gram-negative bacteria: Serratia marcescens; settings: 5×10^5 CFU/mL; for MIC S. marcescens: two-fold serial dilution; for MIC against S. marcescens: Serratia marcescens, 96-well plate, 37° C., 10 h
In short: as §1

Citrobacter diversus = assay: MIC against Gram-negative bacteria: Citrobacter diversus; settings: 5×10^5 CFU/mL; for MIC C. diversus: two-fold serial dilution; for MIC against C. diversus: Citrobacter diversus, 96-well plate, 37° C., 10 h
In short: as §1

E. coli DH5α = assay: Antibacterial activity: MIC and growth curve against E. coli DH5α in 96-well plate; settings: minimal inhibitory concentration against E. coli DH5α; 96-well plate, 5×10^5 CFU/mL, 37° C., judged after 8 h
In short: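 Log-phase bacteria (OD600 ~0.5) resuspended in LB at 5×10^5 CFU/mL, exposed to recombinant protein at 50, 25, 12.5 μg/mL final in triplicate, 37 °C shaking at 175 rpm. OD600 read every 30 min; MIC is lowest concentration showing no growth.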

Substance	MIC K. pneumonia (Klebsiella pneumonia; 10 h cultivation at 37° C.) [µg/mL]	MIC P. aeruginosa (Pseudomonas aeruginosa; 10 h cultivation at 37° C.) [µg/mL]	MIC P. vulgaris (Proteus vulgaris; 10 h cultivation at 37° C.) [µg/mL]	MIC P. mirabilis (Proteus mirabilis; 10 h cultivation at 37° C.) [µg/mL]	MIC E. cloacae (Enterobacter cloacae; 10 h cultivation at 37° C.) [µg/mL]	MIC M. catarrhalis (Moraxella catarrhalis; 10 h cultivation at 37° C.) [µg/mL]	MIC A. hydrophila (Aeromonas hydrophila; 10 h cultivation at 37° C.) [µg/mL]	MIC E. coli BL21 (E. coli BL21; 10 h cultivation at 37° C.) [µg/mL]	MIC S. marcescens (Serratia marcescens; 10 h cultivation at 37° C.) [µg/mL]	MIC C. diversus (Citrobacter diversus; 10 h cultivation at 37° C.) [µg/mL]	MIC (E. coli DH5α) [µg/mL]	MIC against K. pneumonia (Klebsiella pneumonia) [µg/mL]	MIC against P. aeruginosa (Pseudomonas aeruginosa) [µg/mL]	MIC against P. vulgaris (Proteus vulgaris) [µg/mL]	MIC against P. mirabilis (Proteus mirabilis) [µg/mL]	MIC against E. cloacae (Enterobacter cloacae) [µg/mL]	MIC against M. catarrhalis (Moraxella catarrhalis) [µg/mL]	MIC against A. hydrophila (Aeromonas hydrophila) [µg/mL]	MIC against E. coli BL21 (E. coli BL21; E. coli BL21) [µg/mL]	MIC against S. marcescens (Serratia marcescens) [µg/mL]	also measured
PRT1091 (DVNECSSNPCQNGGTCENLPGNYTCHCPFDNLSRTFYGGRDCS; listed as Homo sapiens)	25	12.5	25	50	50	25	25	50	12.5	12.5	12.5										
PRT403 (DNDECSAQPGPCGAHGHCHNTPGSFRCECHQGFTLVSSGHGCE; listed as Homo sapiens)											12.5										MIC (Klebsiella pneumonia; K. pneumonia, 10 h cultivation at 37° C.): 25 µg/mL; MIC (Pseudomonas aeruginosa; P. aeruginosa, 10 h cultivation at 37° C.): 50 µg/mL; MIC (Proteus vulgaris; P. vulgaris, 10 h cultivation at 37° C.): 25 µg/mL; MIC (Proteus mirabilis; P. mirabilis, 10 h cultivation at 37° C.): 12.5 µg/mL; MIC (Enterobacter cloacae; E. cloacae, 10 h cultivation at 37° C.): 12.5 µg/mL; MIC (Moraxella catarrhalis; M. catarrhalis, 10 h cultivation at 37° C.): 25 µg/mL; MIC (Aeromonas hydrophila; A. hydrophila, 10 h cultivation at 37° C.): 25 µg/mL; MIC (E. coli BL21; E. coli BL21, 10 h cultivation at 37° C.): 25 µg/mL; MIC (Serratia marcescens; S. marcescens, 10 h cultivation at 37° C.): 50 µg/mL; MIC (Citrobacter diversus; C. diversus, 10 h cultivation at 37° C.): 50 µg/mL
PRT1157 (DVSEFSLVPCQNGTDCIKISNDVMCICSPIFTDLLCK; listed as Homo sapiens)	25	50	25	12.5	12.5	25	25	25	50	50	12.5										
PRT1214 (GRENCTFAPCLEGGTCILSPKGASCNCPHPYTGDRCE; listed as Homo sapiens)											25	25	50	12.5	50	12.5	25	50	12.5	25	MIC against C. diversus (Citrobacter diversus): 12.5 µg/mL
PRT1138 (EINECDSDPCMNGGLCHESTIPGQFVCLCPPLYTGQFCH; listed as Homo sapiens)	12.5	25	25	12.5	25	25	25	50	50	50	25										
PRT1285 (NQDDCRDHRCQNGAQCMDEVNSYSCLCAEGYSGQLCE; listed as Homo sapiens)											12.5	100	12.5	12.5	50	12.5	25	25	12.5	50	MIC against C. diversus (Citrobacter diversus): 12.5 µg/mL
